Two compounds from patent US20240197728A1, “METHODS AND PHARMACEUTICAL COMPOSITIONS FOR TREATING REFRACTORY EPILEPSY” (INSERM (INSTITUT NATIONAL DE LA SANTÉ ET DE LA RECHERCHE …, priority 2021, published 2024) can be followed below.

The assay concerns KCC2. Nature of the assay: Surface biotinylation and immunoblot of KCC2 in hippocampal cultures. Conditions: for effect on total KCC2 expression: hippocampal cultures. Format: cell-based, rat. On the procedure: Primary cultures of hippocampal neurons were prepared as previously described. Briefly, hippocampi were dissected from embryonic day 18-19 Sprague-Dawley rats of either sex. Tissue was then trypsinized (0.25% v/v), and mechanically dissociated in 1×HBSS (Invitrogen) containing 10 mM HEPES. Neurons were plated at a density of 120×10^3 cells/ml onto 18-mm diameter glass coverslips (Assistent) pre-coated with 50 μg/ml poly-D,L-ornithine (Sigma-Aldrich) in plating medium composed of Minimum Essential Medium (MEM, Sigma-Aldrich) supplemented with horse serum (10% v/v, Invitrogen), L-glutamine (2 mM) and Na+ pyruvate (1 mM) (Invitrogen). After attachment for 3-4 h, cells were incubated in culture medium composed of Neurobasal medium supplemented with B27 (1×), L-glutamine (2 mM), and antibiotics (penicillin 200 units/ml, streptomycin, 200 μg/ml; Invitrogen) for up to 4 weeks at 37° C. in a 5% CO2 humidified incubator. Each week, one fifth of the culture medium volume was renewed.
For all experiments on hippocampal cultures, neurons were pre-incubated for 2 hours with either DMSO, PCPZ or CLP257 in a CO2 incubator set at 37° C. Drugs were added directly to the culture medium. For electrophysiology experiments, neurons were also recorded in presence of these drugs in the bath. For biochemistry experiments on rat hippocampo-cortical slices, slices were incubated with either DMSO (vehicle), CLP257, PCPZ, WNK463 or sodium orthovanadate for 2 hours in interface chambers set at 37° C. For human tissue experiments, slices were pre-incubated with either DMSO, CLP257 or PCPZ for 2 hours in interface chambers set at 37° C. and then also recorded in presence of these compounds.
Neurons were washed with ice-cold PBS three times, and then incubated with PBS supplemented with 0.5-1 mg/ml EZ-Link Sulfo-NHS-SS-Biotin (Pierce, Rockford, IL, USA) at 4° C. for 30 min under gentle agitation. Biotinylation was stopped by addition of Tris-HCl (50 mM; pH 7.4) and cells lysed in a modified RIPA buffer containing (in mM): Tris-HCl 50 (pH 7.4), NaCl 150, 1% Nonidet P-40, 0.5% DOC, 0.1% SDS, NaF 50, Na3VO4 1 and protease and phosphatase inhibitors (Roche). Lysates were then collected by gently scraping the bottom of each well. After complete homogenization, samples were centrifuged and the supernatant was collected. A small fraction of the lysates was kept for input KCC2 and total protein quantification using BCA kit (Thermo Scientific). Lysates were mixed with a 50% slurry of Neutravidin beads (Thermo Scientific) and rotated overnight at 4° C. […]
Samples were subjected to electrophoresis on polyacrylamide gradient gels (4-12%) and transferred to nitrocellulose membranes. […] Fluorescence was detected using Odyssey infrared imaging system (LI-COR Bioscience). […]

With `CN1CCN(CCCN2c3ccccc3Sc3ccc(Cl)cc32)CC1` [PCPZ, prochlorperazine], the “effect on total KCC2 expression” value (10 μM PCPZ, 2 h, p=0.137) is “no effect”. For the same compound, where the note is “10 μM PCPZ, 2 h, p=0.735”, the “effect on ratio of surface to total KCC2 expression” value is reported as “no effect”.
Take `O=C1N=C(N2CCCCN2)S/C1=C\c1ccc(F)cc1O` [CLP257, (5Z)-5-[(4-Fluoro-2-hydroxyphenyl)methylene]-2-(tetrahydro-1-(2H)-pyridazinyl)-4(5H)-thiazolone]: where the note is “100 μM CLP257, 2 h, p=0.893”, the “effect on total KCC2 expression” value is listed as “no effect”. Also, for the setting “100 μM CLP257, 2 h, p=0.8”, the “effect on ratio of surface to total KCC2 expression” value is on record as “no effect”.
